Tests used:
Type in all cases: cell-based, mouse
AMPK = AMPK phosphorylation by Western blot in mHypoE-46; conditions: 500 μM AICAR, 15 min, mHypoE-46, positive control
Procedure: mHypoE-46 cells were serum starved in 5.5 mM glucose (LG) DMEM for 1 hour prior to treatment with vehicle (0.1% DMSO), 100 µM BAP or H20, […] 5-Aminoimidazole-4-carboxamide ribonucleotide (AICAR) or 0 mM glucose DMEM. Protein was harvested using 1× cell lysis buffer (Cell Signaling Technologies, Inc, CST) containing protease and phosphatase inhibitors. A total of 30 μg protein was separated on a 12% SDS-polyacrylamide gels and transferred onto PVDF membranes. Membranes were blocked in 5% milk dissolved in Tris-buffered saline with Tween 20 (TBS-T) for 1 h and incubated with primary antibody overnight at 4° C. phospho-AMPKα (Thr172; cat. 2532S, CST), and total AMPKα (cat. 2535S, CST); phospho-p70-S6K (Thr389; cat. 9205S, CST) and total p70-S6K (cat. 9202S, CST); insulin receptor ß (cat. 3025S, CST); phospho-AKT (Ser473; cat. 9271S, CST) and total AKT (cat. 9272S, CST); phospho-ERK1/2 (Thr202/Tyr204; cat. 9101, CST) and total ERK (cat. 4695, CST) were diluted 1:1000 in 5% milk in TBS-T. Membranes were washed and incubated with secondary HRP-linked antirabbit antibody (1:7500 in 5% milk in TBS-T, CST) for 1 h, washed, and imaged using the Signal Fire ECL Reagent (CST) on the iBright 1500 Imaging System (Thermofisher). Protein density was quantified using ImageJ or the iBright Imaging System.

mHypoA-59 cell line = assay: Gene expression by qRT-PCR in mHypoA-59 hypothalamic cell line; conditions: ATP (data not shown)
Procedure: (§1) Hypothalamic neurons from embryonic and adult mice were previously immortalized to generate the clonal cell lines mHypoE-46, mHypoE-44, mHypoE-41, mHypoE-38, mHypoA-59, a FAC-sorted POMC/GFP mouse-derived cell line, mHypoA-POMC/GFP-2, and a mixed culture mHypoA-Bmal1-WT/F cell line (6, 13, 14). The mHypoE-46, mHypoE-44, and mHypoA-Bmal1-WT/F lines were cultured in DMEM containing 1000 mg/L glucose supplemented with 5% FBS and 1% pen/strep. The mHypoE-41, mHypoE-38, and mHypoA-59 cell lines were cultured in DMEM containing 4500 mg/L glucose supplemented with 2% FBS and 1% pen/strep. The mHypoA-POMC/GFP-2 line was cultured in DMEM containing 1000 mg/L glucose supplemented with 2% FBS and 1% pen/strep. All cells were maintained in 5% CO2 at 37° C. BAP was initially dissolved in DMSO solvent (vehicle control) to achieve 1000x the intended dose. The BAP solution was then diluted 1:1000 with the growth media used for the cell line. For co-treatment experiments, the vehicle control for ATP, UDP, and PKI was water, and for the H89 PKA inhibitor was DMSO. Neuropeptide gene expression levels were determined by qRT-PCR.
(§2) For cell culture experiments, total RNA was isolated using PureLink RNA isolation kit (Thermofisher Scientific, Burlington, ON, Canada) according to the manufacturer's instruction with on column DNase step (PureLink DNAse kit) or DNase I treatment to remove genomic DNA. For mouse experiments, total RNA was isolated using mirVana PARIS RNA and native protein isolation kit (Thermofisher Scientific). RNA quality and quantity were measured using Nanodrop 2000 and 500-1000 ng of complimentary DNA (cDNA) was synthesized with High Capacity cDNA Reverse Transcription kit (Applied biosystems, Thermofisher Scientific). Quantitative reverse transcription polymerase chain reaction (RT-qPCR) was performed with 12.5 ng of cDNA amplified with Platinum SYBR green qPCR SuperMix-UDG with ROX on an Applied Biosystems Prism 7900HT or PowerTrack Green Master Mix on an Applied Biosystems QuantStudio 5 and gene specific primers as per manufacturer's instructions (Table 1). Data was analyzed using […] and normalized to reference gene, either 60S ribosomal protein L7 (Rpl7) or Histone 3a (His).

mHypoE-44 cell line = assay: Gene expression by qRT-PCR in mHypoE-44 hypothalamic cell line; conditions: 16 hr
Procedure: as §1, §2

mHypoE-46 cell line = assay: Gene expression by qRT-PCR in mHypoE-46 hypothalamic cell line; conditions: for Npy expression: 16 hr
Procedure: as §1, §2

mHypoE-41 cell line = assay: Gene expression by qRT-PCR in mHypoE-41 hypothalamic cell line; conditions: 100 μM ATP, 16 hr
Procedure: as §1, §2

For `NC(=O)c1ncn([C@@H]2O[C@H](COP(=O)(O)O)[C@@H](O)[C@H]2O)c1N` [AICAR, 5-Aminoimidazole-4-carboxamide ribonucleotide, reference compound], which “AMPK phosphorylation (activation) vs vehicle” value (AMPK) is on record?
The value was “significantly activate AMPK”.

`Nc1ncnc2c1ncn2[C@@H]1O[C@H](COP(=O)(O)OP(=O)(O)OP(=O)(O)O)[C@@H](O)[C@H]1O` [ATP, reference compound] was tested. Which Agrp expression (mHypoA-59 cell line) did it give?
The Agrp expression was “increased”.

What about the Npy expression (mHypoA-59 cell line) of the same compound?
Its Npy expression is “increased”.

And the Npy expression (mHypoE-44 cell line; 100 μM ATP)?
Its Npy expression is “induces the expression of Npy”.

And the Npy expression (mHypoE-46 cell line; 100 μM ATP)?
The Npy expression was “induces the expression of Npy”.

And the Npy expression (mHypoE-41 cell line)?
The Npy expression was “induces the expression of Npy”.

How did the Npy expression (mHypoE-44 cell line; 100 μM UDP) turn out when `O=c1ccn([C@@H]2O[C@H](COP(=O)(O)OP(=O)(O)O)[C@@H](O)[C@H]2O)c(=O)[nH]1` [UDP, reference compound] was run?
The Npy expression was “unable to affect the expression of Npy”.

What about the Npy expression (mHypoE-46 cell line; 100 μM UDP) of the same compound?
The Npy expression was “no effect”.

Which “basal Npy expression” value (mHypoE-44 cell line; 100 μM UTP, n=2 preliminary) does the source give for `O=c1ccn([C@@H]2O[C@H](COP(=O)(O)OP(=O)(O)OP(=O)(O)O)[C@@H](O)[C@H]2O)c(=O)[nH]1` [UTP, reference compound] here?
Its value is “may decrease the basal expression of Npy”.

And the Npy expression (mHypoE-46 cell line; 100 μM UTP, n=2 preliminary)?
Its Npy expression is “no effect”.

For `c1coc(CNc2ncnc3[nH]cnc23)c1` [kinetin], which “repression of Npy transcripts” value (mHypoE-46 cell line; 100 μM kinetin, 16 h, n=2 preliminary) is on record?
Its value is about 50%.

From patent publication US20260034135A1, “USE OF N6-BENZYLAMINOPURINE AS AN APPETITE SUPPRESSANT” (THE GOVERNING COUNCIL OF THE UNIVERSITY OF TORONTO, priority 2022, published 2026)
